# Measurements from paper PMC9030254, “Target Hopping from Protein Kinases to PXR: Identification of Small-Molecule Protein Kinase Inhibitors as Selective Modulators of Pregnane X Receptor from TüKIC Library” (Cells, 2022).
# How the values were obtained:
# Assay in all cases: Kinase profiling
# Format in all cases: biochemical
# PKCiota = target: T1, PKCiota (Homo sapiens, UniProt P41743)
# T1 construct: purchased ProQinase (Freiburg, Germany)
# T1 sequence (P41743 1-596): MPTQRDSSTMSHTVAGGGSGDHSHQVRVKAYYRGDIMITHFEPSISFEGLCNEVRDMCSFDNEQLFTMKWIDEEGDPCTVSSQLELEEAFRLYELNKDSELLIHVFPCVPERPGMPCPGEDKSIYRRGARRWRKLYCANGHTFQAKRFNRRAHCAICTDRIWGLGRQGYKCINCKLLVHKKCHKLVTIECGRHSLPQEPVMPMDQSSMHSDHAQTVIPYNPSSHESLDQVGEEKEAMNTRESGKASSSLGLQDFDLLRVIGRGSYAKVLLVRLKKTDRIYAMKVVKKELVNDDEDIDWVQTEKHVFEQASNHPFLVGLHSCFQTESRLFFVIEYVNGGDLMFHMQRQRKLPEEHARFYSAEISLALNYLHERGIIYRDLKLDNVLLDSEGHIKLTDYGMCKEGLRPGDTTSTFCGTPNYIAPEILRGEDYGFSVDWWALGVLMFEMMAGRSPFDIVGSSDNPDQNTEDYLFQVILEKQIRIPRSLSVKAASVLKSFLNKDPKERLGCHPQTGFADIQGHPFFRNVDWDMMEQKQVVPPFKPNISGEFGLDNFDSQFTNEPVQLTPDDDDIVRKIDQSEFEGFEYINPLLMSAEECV
# Method: (§1) The analysis was performed by ProQinase (Freiburg, Germany).
# TTK = target: T2, TTK (Homo sapiens, UniProt P33981)
# T2 construct: purchased ProQinase (Freiburg, Germany)
# T2 sequence (P33981 1-857): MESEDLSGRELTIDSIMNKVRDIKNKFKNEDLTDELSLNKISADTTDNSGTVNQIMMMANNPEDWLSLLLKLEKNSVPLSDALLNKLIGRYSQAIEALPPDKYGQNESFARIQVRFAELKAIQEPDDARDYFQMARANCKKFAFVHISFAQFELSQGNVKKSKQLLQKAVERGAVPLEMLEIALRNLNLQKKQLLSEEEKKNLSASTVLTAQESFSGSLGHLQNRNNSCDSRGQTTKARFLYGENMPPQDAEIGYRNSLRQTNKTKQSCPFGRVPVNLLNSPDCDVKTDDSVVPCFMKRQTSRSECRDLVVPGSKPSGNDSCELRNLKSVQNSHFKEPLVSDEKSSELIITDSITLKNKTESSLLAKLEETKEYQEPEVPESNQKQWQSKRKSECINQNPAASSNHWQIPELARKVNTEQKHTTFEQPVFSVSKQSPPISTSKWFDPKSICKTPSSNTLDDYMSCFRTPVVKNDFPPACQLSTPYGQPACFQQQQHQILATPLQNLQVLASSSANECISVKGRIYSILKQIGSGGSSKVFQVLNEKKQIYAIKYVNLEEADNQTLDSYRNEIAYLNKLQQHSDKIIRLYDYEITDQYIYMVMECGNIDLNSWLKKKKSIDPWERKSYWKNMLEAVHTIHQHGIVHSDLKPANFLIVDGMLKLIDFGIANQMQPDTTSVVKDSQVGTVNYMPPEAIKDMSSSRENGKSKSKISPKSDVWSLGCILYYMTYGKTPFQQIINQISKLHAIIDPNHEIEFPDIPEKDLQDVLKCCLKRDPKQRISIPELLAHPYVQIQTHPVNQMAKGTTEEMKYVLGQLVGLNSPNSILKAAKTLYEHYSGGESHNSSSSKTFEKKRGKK
# Method: as §1
# DDR2 = target: T3, DDR2 (Homo sapiens, UniProt Q16832)
# T3 construct: purchased ProQinase (Freiburg, Germany)
# T3 sequence (Q16832 22-855): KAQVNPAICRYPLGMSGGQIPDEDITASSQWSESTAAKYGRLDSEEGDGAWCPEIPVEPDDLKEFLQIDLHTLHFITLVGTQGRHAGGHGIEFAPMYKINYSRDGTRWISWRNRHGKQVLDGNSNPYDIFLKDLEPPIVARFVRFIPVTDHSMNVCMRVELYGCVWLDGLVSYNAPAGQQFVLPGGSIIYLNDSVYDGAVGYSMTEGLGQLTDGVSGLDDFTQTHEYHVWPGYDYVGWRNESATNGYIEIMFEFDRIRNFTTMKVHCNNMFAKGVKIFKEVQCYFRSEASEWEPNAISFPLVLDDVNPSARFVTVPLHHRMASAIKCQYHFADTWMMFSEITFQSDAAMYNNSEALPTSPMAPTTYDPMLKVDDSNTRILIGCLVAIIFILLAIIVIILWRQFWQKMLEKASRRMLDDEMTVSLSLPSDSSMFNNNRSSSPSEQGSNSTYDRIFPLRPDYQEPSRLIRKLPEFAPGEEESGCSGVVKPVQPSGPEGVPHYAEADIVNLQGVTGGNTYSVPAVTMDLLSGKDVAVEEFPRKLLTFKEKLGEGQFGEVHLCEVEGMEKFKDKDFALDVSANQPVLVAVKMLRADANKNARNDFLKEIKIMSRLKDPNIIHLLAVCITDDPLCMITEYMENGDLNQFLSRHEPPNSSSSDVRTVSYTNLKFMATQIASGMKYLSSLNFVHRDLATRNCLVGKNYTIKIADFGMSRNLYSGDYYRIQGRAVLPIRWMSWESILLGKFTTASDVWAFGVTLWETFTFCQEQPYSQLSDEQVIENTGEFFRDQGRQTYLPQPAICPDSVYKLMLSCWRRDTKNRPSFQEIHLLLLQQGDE
# Method: as §1
Structure (SMILES),Residual activity (PKCiota; 1.0E-05 M),Residual activity (PKCiota; 1.0E-06 M),Residual activity (TTK; 1.0E-05 M),Residual activity (TTK; 1.0E-06 M),Residual activity (DDR2; 1.0E-05 M),Residual activity (DDR2; 1.0E-06 M)
O=C(Cc1ccccc1)Nc1ccc(F)c(Nc2ccc3c(c2)CCCCC3=O)c1 [Compound 100],71 % of control,94 % of control,95 % of control,99 % of control,71 % of control,94 % of control
O=C(Nc1ccc(F)c(Nc2ccc3c(c2)CCCCC3=O)c1)c1cccc(F)c1 [Compound 109],77 % of control,82 % of control,89 % of control,91 % of control,64 % of control,93 % of control
